Experimental findings from ChEMBL document CHEMBL1201862, “PubChem BioAssay data set” (2004) are described below.

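48-hour exposure; five concentrations; linearly interpolated endpoints. GI50 is the concentration that inhibits growth by half.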 The source made the active and inactive calls. Rule as the data show it: active = GI50 up to about 1.1 µM and inactive = higher. Some results are limits rather than exact numbers.

Test systems include RXF 393; BT-549; HCC 2998; MCF7; NCI/ADR-RES; SF-539; PC-3; K562; CAKI-1; Hs-578T; A498; UACC-257; HCT-15; DU-145; HCT-116; CCRF-CEM; ACHN; UO-31; HOP-92; T47D.
Common to all, as to assay: NCI tumour cell line growth inhibition, 48 h

Regarding `NS(=O)(=O)c1ccc(NC(=O)c2cccc3cc4ccccc4nc23)cc1`, the GI50 with RXF 393 was 17.7 µM (inactive); in the assay on BT-549, 42.4 µM (inactive); with HCC 2998 it was > 100 µM (inactive); with MCF7, 6.68 µM (inactive); in the assay on NCI/ADR-RES, 11.8 µM (inactive); in the assay on SF-539, 13.8 µM (inactive). For the same molecule, the GI50 in the assay with PC-3 is 37.3 µM (inactive); in the assay on K562, 30.1 µM (inactive); in the assay on CAKI-1 it was 10.1 µM (inactive); in the assay on Hs-578T, 8.53 µM (inactive); in the assay on A498 it was > 43.7 µM (inactive); with UACC-257, 71.4 µM (inactive). Also, the GI50 with HCT-15 is 12.6 µM; in the assay with DU-145, > 100 µM (inactive); in the assay with HCT-116, 4.69 µM (inactive); in the assay with CCRF-CEM, 7.71 µM (inactive); with ACHN, 6.64 µM (inactive); in the assay on UO-31 it was 8.07 µM (inactive). For the same molecule, the results for the GI50 with HOP-92 and in the assay on T47D were 15.1 µM (inactive) and 96.6 µM (inactive), respectively.

With `CC(C)(C)c1cc(C(P(=O)(c2ccccc2)c2ccccc2)P(=O)(c2ccccc2)c2ccccc2)cc(C(C)(C)C)c1O`, the GI50 with RXF 393 is 3.19 µM (inactive); with BT-549, 3.36 µM (inactive); in the assay with HCC 2998, 1.72 µM (inactive); in the assay with MCF7 it was 2.28 µM (inactive); in the assay on NCI/ADR-RES it was 2.12 µM (inactive); in the assay on SF-539, 2.25 µM (inactive). The GI50 with PC-3 is 2.67 µM (inactive); in the assay on K562, 3.42 µM (inactive); in the assay on CAKI-1 it was 3.85 µM (inactive); in the assay on Hs-578T, 2.48 µM (inactive); in the assay on A498, 2.74 µM (inactive); in the assay on UACC-257 it was 2.04 µM (inactive). Moreover, the GI50 in the assay with HCT-15 was 2.96 µM; in the assay with DU-145, 3.3 µM (inactive); with HCT-116 it was 1.58 µM (inactive); in the assay on CCRF-CEM it was 2.21 µM (inactive); in the assay with ACHN, 3.18 µM (inactive); with UO-31 it was 2.24 µM (inactive). For the same molecule, the results for the GI50 in the assay on HOP-92 and with T47D were 2.43 µM (inactive) and 2.9 µM (inactive), respectively.

For the molecule `CC(=O)CCC[C@@H](C)[C@@H]1O[C@H]([C@@]2(C)CCC(=O)O2)C[C@H]2C(CSc3ccccc3)C(=O)O[C@@H]12` (stereo not given in full), the GI50 in the assay with RXF 393 was 4.16 µM (inactive); in the assay with BT-549, 11.6 µM (inactive); in the assay on HCC 2998, 15.3 µM (inactive); in the assay on MCF7 it was 9.55 µM (inactive); with NCI/ADR-RES, 17.7 µM (inactive); in the assay on SF-539, 14.6 µM (inactive). The GI50 with PC-3 was 19 µM (inactive); with K562 it was 6.18 µM (inactive); in the assay on CAKI-1, 12.7 µM (inactive); in the assay on Hs-578T, 12.4 µM (inactive); in the assay with A498, 27.4 µM (inactive); with UACC-257, 13.4 µM (inactive). Moreover, the GI50 is 17.3 µM in the assay with HCT-15; 14.6 µM (inactive) in the assay on DU-145; 15.6 µM (inactive) in the assay with HCT-116; 3.3 µM (inactive) in the assay with CCRF-CEM; 14.3 µM (inactive) in the assay with ACHN; 14.2 µM (inactive) in the assay on UO-31. Moreover, the values for the GI50 in the assay on HOP-92 and in the assay on T47D were 16.3 µM (inactive) and 17.9 µM (inactive), respectively.

For the molecule `Cc1ccc(C)c(COCCOCn2cc(N3CCOCC3)c(=O)[nH]c2=O)c1`, the GI50 in the assay on RXF 393, with BT-549, with HCC 2998, in the assay on MCF7, in the assay on NCI/ADR-RES and with SF-539 was > 100 µM (inactive) in each case. The GI50 in the assay with PC-3 is > 100 µM (inactive); in the assay on K562, > 100 µM (inactive); with CAKI-1, > 100 µM (inactive); in the assay on Hs-578T, 54.6 µM (inactive); in the assay with A498, > 100 µM (inactive); with UACC-257, > 100 µM (inactive). The GI50 was more than 100 µM in the assay with HCT-15; > 100 µM (inactive) with DU-145; > 100 µM (inactive) in the assay with HCT-116; > 100 µM (inactive) with CCRF-CEM; > 100 µM (inactive) in the assay with ACHN; > 100 µM (inactive) in the assay on UO-31. Also, the GI50 with HOP-92 and in the assay on T47D was > 100 µM (inactive) in each case.

With `Clc1cc(Cl)cc(C2ON=C(c3ccccc3)N2C23CC4CC(CC(C4)C2)C3)c1` (stereo not given), the GI50 in the assay on RXF 393, with BT-549, in the assay with HCC 2998, in the assay on MCF7, in the assay with NCI/ADR-RES and in the assay with SF-539 was > 10 µM (inactive) throughout. Moreover, the GI50 in the assay with PC-3, in the assay with K562, with CAKI-1, in the assay with Hs-578T, in the assay on A498 and in the assay with UACC-257 was > 10 µM (inactive) each time. Moreover, the GI50 in the assay on HCT-15 is more than 10 µM; in the assay on DU-145, > 10 µM (inactive); in the assay on HCT-116, > 10 µM (inactive); in the assay with CCRF-CEM, > 10 µM (inactive); with ACHN, > 10 µM (inactive); in the assay on UO-31, > 10 µM (inactive). Moreover, the GI50 with HOP-92 is 0.643 µM (active); with T47D it was > 10 µM (inactive).

As for `O=c1[nH]nc(-c2ccccc2)n1/N=C/c1cccnc1`, the GI50 is 34.4 µM (inactive) in the assay on RXF 393; 39.2 µM (inactive) in the assay on BT-549; 95.5 µM (inactive) in the assay with HCC 2998; 47.1 µM (inactive) with MCF7; 69.8 µM (inactive) with NCI/ADR-RES; 40.4 µM (inactive) in the assay with SF-539. The GI50 in the assay with PC-3 is 52.2 µM (inactive); with K562 it was 40.5 µM (inactive); in the assay on CAKI-1 it was 25.1 µM (inactive); in the assay with Hs-578T it was 37.5 µM (inactive); in the assay with A498, 27 µM (inactive); in the assay on UACC-257, > 100 µM (inactive). Moreover, the GI50 in the assay with HCT-15 was 61.1 µM; in the assay on DU-145 it was 78.5 µM (inactive); with HCT-116, 54.3 µM (inactive); in the assay with CCRF-CEM it was 69.5 µM (inactive); in the assay with ACHN it was 63.7 µM (inactive); in the assay with UO-31, > 100 µM (inactive). Also, the GI50 with HOP-92 was 61.9 µM (inactive); in the assay on T47D, 31.6 µM (inactive).

Take `C[C@H](CCC(=O)O)[C@H]1CC[C@H]2[C@@H]3[C@H](O)[C@H](O)[C@@H]4C[C@H](O)CC[C@]4(C)[C@H]3CC[C@]12C` [HYOCHOLIC ACID]: the GI50 in the assay with RXF 393, with BT-549, in the assay on HCC 2998, in the assay on MCF7, in the assay with NCI/ADR-RES and with SF-539 was > 100 µM (inactive) each time. For the same molecule, the GI50 in the assay on PC-3, in the assay with K562, in the assay on CAKI-1, with Hs-578T, in the assay on A498 and in the assay on UACC-257 was > 100 µM (inactive) throughout. Besides, the GI50 in the assay on HCT-15 is more than 100 µM; in the assay on DU-145, > 100 µM (inactive); in the assay on HCT-116, > 100 µM (inactive); in the assay with CCRF-CEM, > 100 µM (inactive); in the assay on ACHN it was > 100 µM (inactive); with UO-31, > 100 µM (inactive). Besides, the GI50 in the assay with HOP-92 and in the assay with T47D was > 100 µM (inactive) throughout.
